The values that follow come from patent US20250136578A1 (Kolm Therapeutics Inc., priority 2023, published 2025).

As usually defined, the IC50 is the concentration needed to halve the response being measured.

Read-outs that look alike come from different tables or passages of the source.

One assay has as its target AR / CBP ternary complex (Homo sapiens, UniProt P10275+Q92793). Nature of the assay: Ternary complex formation assay (sandwich ELISA, AR capture, CBP antibody detection) in VCaP cell lysates. The class given is cell-based. The essentials:
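Sandwich ELISA: plates were coated with anti-AR antibody (AR441) and given lysates of VCaP cells treated 1.5 h with bifunctional compound in charcoal-stripped serum. Co-captured CBP or p300 was probed with rabbit mAbs and HRP secondary. Chemifluorescent signal (ex 570/em 585) was read at 0, 5 and 15 min.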

A further assay deals with VCaP cells. Nature of the assay: VCaP growth inhibition assay (CTG). The class given is cell-based. As to conditions: Homo sapiens, 216 h, 30 pM R1881, 9 days. A digest of the protocol: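 Growth was measured by CTG luminescence after a 9-day exposure of VCaP cells to compound (final 10 fM–100 nM, fivefold steps) in the presence of 30 pM final R1881, in phenol red-free DMEM/5% CSS. IC50 values were derived by nonlinear 4-parameter regression of RLU against concentration.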

[1] abbreviates: treated 1.5 hours, rabbit CBP or p300 antibody detection, average, read-out: Average Ternary Complex.
Where [2] appears, read: read-out: Average Ternary Complex, treated 1.5 hours, rabbit CBP or p300 antibody detection.

Chain of AR / CBP ternary complex (P10275 whole entry): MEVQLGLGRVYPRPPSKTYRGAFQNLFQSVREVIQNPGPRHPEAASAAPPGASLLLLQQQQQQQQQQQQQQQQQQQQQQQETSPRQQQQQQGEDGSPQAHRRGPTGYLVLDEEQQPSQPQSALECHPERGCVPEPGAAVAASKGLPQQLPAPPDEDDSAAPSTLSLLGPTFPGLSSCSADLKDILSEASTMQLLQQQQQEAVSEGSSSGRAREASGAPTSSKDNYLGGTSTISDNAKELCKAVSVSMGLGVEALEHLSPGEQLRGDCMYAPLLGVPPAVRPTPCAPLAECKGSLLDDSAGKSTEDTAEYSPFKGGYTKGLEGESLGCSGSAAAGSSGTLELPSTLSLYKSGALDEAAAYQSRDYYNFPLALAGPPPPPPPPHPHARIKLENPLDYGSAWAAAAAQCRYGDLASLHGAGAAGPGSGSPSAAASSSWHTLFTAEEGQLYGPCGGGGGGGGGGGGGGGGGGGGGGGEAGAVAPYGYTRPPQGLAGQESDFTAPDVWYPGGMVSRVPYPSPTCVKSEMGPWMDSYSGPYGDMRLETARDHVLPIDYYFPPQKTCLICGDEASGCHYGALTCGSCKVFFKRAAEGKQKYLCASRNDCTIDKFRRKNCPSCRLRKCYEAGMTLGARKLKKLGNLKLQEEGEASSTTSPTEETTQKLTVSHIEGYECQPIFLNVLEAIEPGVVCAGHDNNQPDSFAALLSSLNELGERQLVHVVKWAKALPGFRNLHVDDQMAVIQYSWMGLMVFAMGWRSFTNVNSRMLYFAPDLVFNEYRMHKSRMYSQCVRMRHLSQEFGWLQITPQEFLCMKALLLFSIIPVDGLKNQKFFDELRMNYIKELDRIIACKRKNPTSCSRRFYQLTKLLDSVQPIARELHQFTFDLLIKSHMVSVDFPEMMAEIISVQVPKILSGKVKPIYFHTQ
Chain of AR / CBP ternary complex (Q92793 2-2442): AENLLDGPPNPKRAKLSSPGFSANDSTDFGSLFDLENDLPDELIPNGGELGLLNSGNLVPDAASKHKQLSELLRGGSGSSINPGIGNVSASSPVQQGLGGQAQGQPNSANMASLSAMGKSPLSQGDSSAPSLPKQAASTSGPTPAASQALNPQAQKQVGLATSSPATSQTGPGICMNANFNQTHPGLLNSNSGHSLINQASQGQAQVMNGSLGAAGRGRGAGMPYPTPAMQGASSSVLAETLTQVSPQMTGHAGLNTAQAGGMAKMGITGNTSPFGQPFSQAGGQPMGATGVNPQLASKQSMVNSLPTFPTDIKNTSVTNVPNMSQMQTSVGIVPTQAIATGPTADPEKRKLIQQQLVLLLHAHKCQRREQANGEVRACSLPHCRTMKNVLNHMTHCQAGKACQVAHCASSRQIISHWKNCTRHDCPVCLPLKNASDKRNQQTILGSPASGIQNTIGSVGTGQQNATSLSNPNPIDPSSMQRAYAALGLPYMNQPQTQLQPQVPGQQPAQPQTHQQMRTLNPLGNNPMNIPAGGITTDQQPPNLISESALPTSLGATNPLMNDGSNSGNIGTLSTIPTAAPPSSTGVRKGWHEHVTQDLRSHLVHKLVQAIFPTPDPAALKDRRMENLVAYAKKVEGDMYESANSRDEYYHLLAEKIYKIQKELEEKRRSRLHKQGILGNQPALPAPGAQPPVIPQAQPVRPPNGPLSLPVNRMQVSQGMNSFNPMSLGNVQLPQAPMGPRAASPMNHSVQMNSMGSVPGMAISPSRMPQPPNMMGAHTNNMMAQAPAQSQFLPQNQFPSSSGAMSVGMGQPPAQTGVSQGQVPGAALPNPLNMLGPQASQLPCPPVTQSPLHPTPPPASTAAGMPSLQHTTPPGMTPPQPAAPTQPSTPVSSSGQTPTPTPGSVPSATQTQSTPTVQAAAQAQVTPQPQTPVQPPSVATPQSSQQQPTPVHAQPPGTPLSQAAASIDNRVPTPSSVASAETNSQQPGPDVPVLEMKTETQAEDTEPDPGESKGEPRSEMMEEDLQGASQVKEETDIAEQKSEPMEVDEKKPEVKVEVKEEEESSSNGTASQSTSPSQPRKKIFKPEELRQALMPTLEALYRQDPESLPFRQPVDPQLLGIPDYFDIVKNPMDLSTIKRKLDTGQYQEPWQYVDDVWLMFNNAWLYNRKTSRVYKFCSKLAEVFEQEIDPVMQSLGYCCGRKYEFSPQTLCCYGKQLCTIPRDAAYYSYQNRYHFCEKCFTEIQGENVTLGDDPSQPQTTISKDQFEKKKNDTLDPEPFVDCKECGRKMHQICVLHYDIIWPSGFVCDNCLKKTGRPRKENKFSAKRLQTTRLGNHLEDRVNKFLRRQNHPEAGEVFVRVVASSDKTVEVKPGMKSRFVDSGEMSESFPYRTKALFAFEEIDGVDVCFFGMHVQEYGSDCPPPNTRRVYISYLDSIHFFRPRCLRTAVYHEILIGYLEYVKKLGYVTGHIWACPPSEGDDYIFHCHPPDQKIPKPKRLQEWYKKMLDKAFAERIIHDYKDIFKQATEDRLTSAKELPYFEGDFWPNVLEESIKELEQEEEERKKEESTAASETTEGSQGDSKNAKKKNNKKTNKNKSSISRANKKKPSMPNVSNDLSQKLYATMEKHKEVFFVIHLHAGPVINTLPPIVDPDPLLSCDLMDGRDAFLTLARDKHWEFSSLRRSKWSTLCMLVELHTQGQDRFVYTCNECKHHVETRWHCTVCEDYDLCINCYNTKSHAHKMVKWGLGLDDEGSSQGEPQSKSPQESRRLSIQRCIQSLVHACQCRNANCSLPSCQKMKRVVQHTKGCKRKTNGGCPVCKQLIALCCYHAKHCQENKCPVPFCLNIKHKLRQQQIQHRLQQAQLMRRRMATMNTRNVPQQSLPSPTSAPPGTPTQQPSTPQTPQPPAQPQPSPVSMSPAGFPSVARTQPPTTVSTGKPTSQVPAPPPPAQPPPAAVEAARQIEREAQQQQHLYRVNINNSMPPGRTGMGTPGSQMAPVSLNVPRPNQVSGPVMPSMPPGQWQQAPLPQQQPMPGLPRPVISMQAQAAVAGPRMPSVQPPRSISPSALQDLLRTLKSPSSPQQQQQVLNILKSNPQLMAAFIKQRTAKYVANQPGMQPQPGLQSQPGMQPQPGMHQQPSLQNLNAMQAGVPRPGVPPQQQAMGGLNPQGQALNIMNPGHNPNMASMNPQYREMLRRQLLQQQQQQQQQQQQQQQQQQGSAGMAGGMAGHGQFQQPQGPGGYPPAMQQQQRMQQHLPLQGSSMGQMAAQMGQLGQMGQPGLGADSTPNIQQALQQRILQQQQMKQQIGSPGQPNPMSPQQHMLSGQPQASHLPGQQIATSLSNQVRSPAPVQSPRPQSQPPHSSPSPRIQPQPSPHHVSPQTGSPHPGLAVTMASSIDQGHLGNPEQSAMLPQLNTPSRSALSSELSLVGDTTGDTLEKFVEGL

On to `CC(=O)N1CCc2c(c(-c3cccc4cc(-c5cnn(CCC6CC7(C6)CN(c6ccc(C(=O)N[C@H]8CC[C@H](Oc9ccc(C#N)c(Cl)c9)CC8)nn6)C7)c5)ncc34)nn2C2CCOCC2)C1` [Compound 49, 6-[6-[2-[4-[8-(5-acetyl-1-tetrahydropyran-4-yl-6,7-dihydro-4H-pyrazolo[4,3-c]pyridin-3-yl)-3-isoquinolyl]pyrazol-1-yl]ethyl]-2-azaspiro[3.3]heptan-2-yl]-N-[4-(3-chloro-4-cyano-phenoxy)cyclohexyl]pyridazine3-carboxamide], for which the EC50 on AR / CBP ternary complex (setting [1]) is below 1 nM. The IC50 with VCaP cells lay within 0.1 to 1 nM.
On to `CC(=O)N1CCc2c(c(N3CCCc4cc(-c5cnn(C)c5)c(C(F)F)cc43)nn2C2CCN(C[C@H]3[C@H](C)CN(c4ccc(C(=O)N[C@H]5CC[C@H](Oc6ccc(C#N)c(Cl)c6C)CC5)nn4)C[C@@H]3C)CC2)C1` [Compound 287, 6-[4-[[4-[5-acetyl-3-[7-(difluoromethyl)-6-(1-methylpyrazol-4-yl)-3,4-dihydro-2H-quinolin-1-yl]-6,7-dihydro-4H-pyrazolo[4,3-c]pyridin-1-yl]-1-piperidyl]methyl]-3,5-dimethyl-1-piperidyl]-N-[4-(3-chloro-4-cyano-2-methyl-phenoxy)cyclohexyl]pyridazine-3-carboxamide], for which the EC50 on AR / CBP ternary complex (setting [1]) is below 1 nM. Also, the IC50 with VCaP cells is at most 0.1 nM.
As to `CC(=O)N1CCc2c(c(-c3cccc4cc(-c5cnn(C)c5)ncc34)nn2C2CCN(CC3CCN(c4ccc(C(=O)N[C@H]5CC[C@H](Oc6ccc(C#N)c(Cl)c6)CC5)cc4)CC3)CC2)C1` [Compound 162, 4-[4-[[4-[5-acetyl-3-[3-(1-methylpyrazol-4-yl)-8-isoquinolyl]-6,7-dihydro-4H-pyrazolo[4,3-c]pyridin-1-yl]-1-piperidyl]methyl]-1-piperidyl]-N-[4-(3-chloro-4-cyano-phenoxy)cyclohexyl]benzamide], on AR / CBP ternary complex (setting [1]), the EC50 was in the range of 1 to 10 nM. Besides, the IC50 in the assay with VCaP cells is 0.1 to 1 nM.
Consider `CC(=O)N1CCc2c(c(N3CCCc4cc(-c5cnn(C)c5)c(C(F)F)cc43)nn2C2CCN(C(=O)CC3CCN(c4ccc(C(=O)N[C@H]5CC[C@H](N(C)c6ccc(C#N)c(Cl)c6)CC5)cc4)CC3)CC2)C1` [Compound 13, 4-[4-[2-[4-[5-acetyl-3-[7-(difluoromethyl)-6-(1-methylpyrazol-4-yl)-3,4-dihydro-2H-quinolin-1-yl]-6,7-dihydro-4H-pyrazolo[4,3-c]pyridin-1-yl]-1-piperidyl]-2-oxo-ethyl]-1-piperidyl]-N-[4-(3-chloro-4-cyano-N-methyl-anilino)cyclohexyl]benzamide], for which the EC50 at AR / CBP ternary complex (setting [2]) is below 1 nM. This compound showed an IC50 in the assay with VCaP cells of 0.1 to 1 nM.
Take `CC(=O)N1CCc2c(c(N3CCCc4cc(-c5cnn(C)c5)c(C(F)F)cc43)nn2C2CCN(C3CCC(C#Cc4ccc(C(=O)N[C@H]5CC[C@H](Oc6ccc(C#N)c(Cl)c6)CC5)nn4)CC3)CC2)C1` (some centres unmarked) [Compound 194, 6-[2-[4-[4-[5-acetyl-3-[7-(difluoromethyl)-6-(1-methylpyrazol-4-yl)-3,4-dihydro-2H-quinolin-1-yl]-6,7-dihydro-4H-pyrazolo[4,3-c]pyridin-1-yl]-1-piperidyl]cyclohexyl]ethynyl]-N-[4-(3-chloro-4-cyano-phenoxy)cyclohexyl]pyridazine-3-carboxamide]: the EC50 at AR / CBP ternary complex (setting [1]) was below 1 nM. In addition, the IC50 in the assay with VCaP cells is at most 0.1 nM.
Take `CC(=O)N1CCc2c(c(-c3cccc4cc(-c5cnn(CCOC6CC7(C6)CN(c6ccc(C(=O)N[C@H]8CC[C@H](Oc9ccc(C#N)c(Cl)c9)CC8)nn6)C7)c5)ncc34)nn2C2CCOCC2)C1` [Compound 63, 6-[6-[2-[4-[8-(5-acetyl-1-tetrahydropyran-4-yl-6,7-dihydro-4H-pyrazolo[4,3-c]pyridin-3-yl)-3-isoquinolyl]pyrazol-1-yl]ethoxy]-2-azaspiro[3.3]heptan-2-yl]-N-[4-(3-chloro-4-cyano-phenoxy)cyclohexyl]pyridazine-3-carboxamide]: at AR / CBP ternary complex (setting [1]), the EC50 is below 1 nM. In the assay with VCaP cells, the 50% inhibitory concentration (IC50) was in the range of 0.1 to 1 nM.
The corresponding values for `CC(=O)N1CCc2c(c(N3CCCc4cc(-c5cnn(C)c5)c(C(F)F)cc43)nn2C2CCN(C3CC4(CCC(Oc5ccc(C(=O)N[C@H]6CC[C@H](Oc7ccc(C#N)c(Cl)c7)CC6)nn5)CC4)C3)CC2)C1` (some centres unmarked) [Compound 252, 6-[2-[4-[5-acetyl-3-[7-(difluoromethyl)-6-(1-methylpyrazol-4-yl)-3,4-dihydro-2H-quinolin-1-yl]-6,7-dihydro-4H-pyrazolo[4,3-c]pyridin-1-yl]-1-piperidyl]spiro[3.5]nonan-7-yl]oxy-N-[4-(3-chloro-4-cyano-phenoxy)cyclohexyl]pyridazine-3-carboxamide] are below 1 nM and at most 0.1 nM.
In the case of `CC(=O)N1CCc2c(c(N3CCCc4cc(-c5cnn(C)c5)c(C)cc43)nn2C2CCN(CC3CCN(c4ccc(C(=O)N[C@H]5CC[C@H](Oc6ccc(C#N)c(Cl)c6)CC5)nn4)CC3(C)C)CC2)C1` (some centres unmarked) [Compound 282, 6-[4-[[4-[5-acetyl-3-[7-methyl-6-(1-methylpyrazol-4-yl)-3,4-dihydro-2H-quinolin-1-yl]-6,7-dihydro-4H-pyrazolo[4,3-c]pyridin-1-yl]-1-piperidyl]methyl]-3,3-dimethyl-1-piperidyl]-N-[4-(3-chloro-4-cyano-phenoxy)cyclohexyl]pyridazine-3-carboxamide], the EC50 at AR / CBP ternary complex (setting [1]) was below 1 nM. The compound further gave an IC50 in the assay on VCaP cells of 0.1 to 1 nM.
The corresponding values for `CC(=O)N1CCc2c(c(-c3cccc4cc(-c5cnn(CCC6CCN(c7ccc(C(=O)N[C@H]8CC[C@H](Oc9ccc(C#N)c(Cl)c9)CC8)nn7)CC6)c5)ncc34)nn2C2CC2)C1` [Compound 82] are below 1 nM and 0.1 to 1 nM.
Take `CC(=O)N1CCc2c(c(N3CCCc4cc(-c5cnn(C)c5)c(C(F)F)cc43)nn2C2CCN([C@H]3C[C@H](Oc4ccc(C(=O)N[C@H]5CC[C@H](Oc6ccc(C#N)c(Cl)c6)CC5)nn4)C3)CC2)C1` [Compound 240, 6-[3-[4-[5-acetyl-3-[7-(difluoromethyl)-6-(1-methylpyrazol-4-yl)-3,4-dihydro-2H-quinolin-1-yl]-6,7-dihydro-4H-pyrazolo[4,3-c]pyridin-1-yl]-1-piperidyl]cyclobutoxy]-N-[4-(3-chloro-4-cyano-phenoxy)cyclohexyl]pyridazine-3-carboxamide]: on AR / CBP ternary complex (setting [1]), the EC50 is below 1 nM. The compound further had an IC50 with VCaP cells of 0.1 to 1 nM.
`CC(=O)N1CCc2c(c(-c3cccc4cc(C#N)ncc34)nn2C2CCN(CC3CCN(c4ccc(C(=O)N[C@H]5CC[C@H](Oc6ccc(C#N)c(Cl)c6)CC5)nn4)CC3)CC2)C1` [Compound 121, 6-[4-[[4-[5-acetyl-3-(3-cyano-8-isoquinolyl)-6,7-dihydro-4H-pyrazolo[4,3-c]pyridin-1-yl]-1-piperidyl]methyl]-1-piperidyl]-N-[4-(3-chloro-4-cyano-phenoxy)cyclohexyl]pyridazine-3-carboxamide]: at AR / CBP ternary complex (setting [1]), the EC50 is below 1 nM. In addition, in the assay with VCaP cells, the IC50 fell in the range of 0.1 to 1 nM.
For the compound `CC(=O)N1CCc2c(c(-c3cccc4cc(-c5cnn(C)c5)ncc34)nn2C2CCN(CC3CCN(c4ccc(C(=O)N[C@H]5CC[C@H](Oc6ccc(C#N)c(Cl)c6)CC5)cn4)CC3)CC2)C1` [Compound 161, 6-[4-[[4-[5-acetyl-3-[3-(1-methylpyrazol-4-yl)-8-isoquinolyl]-6,7-dihydro-4H-pyrazolo[4,3-c]pyridin-1-yl]-1-piperidyl]methyl]-1-piperidyl]-N-[4-(3-chloro-4-cyano-phenoxy)cyclohexyl]pyridine-3-carboxamide], the EC50 on AR / CBP ternary complex (setting [1]) was below 1 nM. The IC50 in the assay with VCaP cells is at most 0.1 nM.
The corresponding values for `CC(=O)N1CCc2c(c(N3CCCc4ccc(C(F)F)cc43)nn2C2CC3(C2)CN(CC2CC4(C2)CN(c2ccc(C(=O)N[C@H]5CC[C@H](Oc6ccc(C#N)c(Cl)c6)CC5)nn2)C4)C3)C1` (some centres unmarked) [Compound 43, -[6-[[6-[5-acetyl-3-[7-(difluoromethyl)-3,4-dihydro-2H-quinolin-1-yl]-6,7-dihydro-4H-pyrazolo[4,3-c]pyridin-1-yl]-2-azaspiro [3.3]heptan-2-yl]methyl]-2-azaspiro [3.3]heptan-2-yl]-N-[4-(3-chloro-4-cyano-phenoxy)cyclohexyl] pyridazine-3-carboxamide] are 1 to 10 nM and 0.1 to 1 nM.
With `CC(=O)N1CCc2c(c(-c3cccc4cc(-c5ccc(CCC6CCN(c7ccc(C(=O)N[C@H]8CC[C@H](Oc9ccc(C#N)c(Cl)c9)CC8)cn7)CC6)nc5)ncc34)nn2C2CCOCC2)C1` [Compound 165], the EC50 on AR / CBP ternary complex (setting [1]) was below 1 nM. In addition, the IC50 in the assay on VCaP cells is 0.1 to 1 nM.
In the case of `CC(=O)N1CCc2c(c(N3CCCc4cc(-c5cnn(C)c5)c(C(F)F)cc43)nn2C2CCN(CC3C4CC3CN(c3ccc(C(=O)N[C@H]5CC[C@H](Oc6ccc(C#N)c(Cl)c6)CC5)nn3)C4)CC2)C1` (some centres unmarked) [Compound 118, 6-[6-[[4-[5-acetyl-3-[7-(difluoromethyl)-6-(1-methylpyrazol-4-yl)-3,4-dihydro-2H-quinolin-1-yl]-6,7-dihydro-4H-pyrazolo[4,3-c]pyridin-1-yl]-1-piperidyl]methyl]-3-azabicyclo [3.1.1]heptan-3-yl]-N-[4-(3-chloro-4-cyano-phenoxy)cyclohexyl] pyridazine-3-carboxamide], at AR / CBP ternary complex (setting [2]), the EC50 was below 1 nM. In the assay with VCaP cells, this compound gave an IC50 of 0.1 to 1 nM.
With `CC(=O)N1CCc2c(c(N3CCCc4cc(-c5cnn(C)c5)c(C)cc43)nn2C2CCN(C3CCC4(CC3)CN(c3ccc(C(=O)N[C@H]5CC[C@H](Oc6ccc(C#N)c(Cl)c6C)CC5)nn3)C4)CC2)C1` [Compound 300, 6-[7-[4-[5-acetyl-3-[7-methyl-6-(1-methylpyrazol-4-yl)-3,4-dihydro-2H-quinolin-1-yl]-6,7-dihydro-4H-pyrazolo[4,3-c]pyridin-1-yl]-1-piperidyl]-2-azaspiro[3.5]nonan-2-yl]-N-[4-(3-chloro-4-cyano-2-methyl-phenoxy)cyclohexyl]pyridazine-3-carboxamide], the EC50 on AR / CBP ternary complex (setting [1]) is below 1 nM. For the same compound, the IC50 in the assay with VCaP cells was at most 0.1 nM.
